How the values were obtained:
[1] = test system: DIPG-007, DIPG-IV, SF8628, and DIPG-13p cells; assay: Alamar blue viability EC50 dose response in H3K27M DIPG cells; type: cell-based; settings: Homo sapiens, 96 h, SF8628, DIPG-13p cells, lowest of the ERK5 inhibitors tested
Description: Human Neural Stem Cells (H9 hESC-Derived) were purchased from Invitrogen and grown in DMEM/F12 containing penicillin/streptomycin/amphotericin B (1% vol/vol) supplemented with N2 (2% vol/vol; Invitrogen), EGF (20 ng/ml; Invitrogen), and FGF-2 (20 ng/ml; Invitrogen). DIPG cell lines (all with the H3K27M mutation) SU-DIPG-IV (DIPG-IV), SU-DIPG-13p (DIPG-13p), and HSJD-DIPG-007 (DIPG-007) were grown and passaged in DIPG medium as previously reported (Grasso et al., Nature medicine 2015; 21:555-9; Nagaraja et al., Cancer cell 2017; 31:635-52 e6; Vinci et al., Nature medicine 2018). SF8628 and immortalized NHAs were grown in DMEM (Invitrogen) supplemented with 10% FBS (Invitrogen). All cell lines were confirmed by STR profiling and tested mycoplasma negative by PCR. All tumor-derived cell lines used are described in Table 2.
(§1) Direct cell counts were performed using the Countess II FL Automated Cell Counter (ThermoFisher Scientific). Alamar blue viability (ThermoFisher Scientific) and the 5-bromo-2′-deoxyuridine (BrdU) incorporated cell proliferation assay (Cell Signaling Technology Cat #6813) were performed using the manufacturer's standard protocol. EC50 curve analysis was performed using raw fluorescent Alamar blue values that were inputted into PRISM 7.0. Drug concentrations were log 10 transformed and values normalized to percent viability with respect to vehicle treated cells. […]

[2] = test system: CNMC-XD-760; assay: Alamar blue viability EC50 in H3 wildtype DIPG cell line; type: cell-based, human; settings: CNMC-XD-760 (DIPG histone wildtype H3) compared to H3 mutant DIPG cells and hemispheric pGBM cells; 96 h
Description: (§2) Direct cell counts were performed using the Countess II FL Automated Cell Counter (ThermoFisher Scientific). Alamar blue viability (ThermoFisher Scientific) and the 5-bromo-2′-deoxyuridine (BrdU) incorporated cell proliferation assay (Cell Signaling Technology Cat #6813) were performed using the manufacturer's standard protocol. EC50 curve analysis was performed using raw fluorescent Alamar blue values that were inputted into PRISM 7.0. Drug concentrations were log 10 transformed and values normalized to percent viability with respect to vehicle treated cells. EC50 values were interpolated from a log inhibitor vs. normalized response with variable slope using a least square fit model.

[3] = test system: DIPG-007, DIPG-IV, SF8628 and DIPG-13p cells; assay: Direct Trypan-Blue automated cell count of DIPG cells; type: cell-based, human
Description: as §2

[4] = test system: DIPG-IV cells; assay: EC50 of ERK5-IN-1 in DIPG-IV cells expressing ERK5-HA, ERK5-HA T733E or MYC S62D; type: cell-based, human
Description: Wildtype human H3F3A cDNA was ligated with a puromycin selection marker and a self-cleaving T2A sequence using Gibson Assembly Cloning and cloned into pLV with an EF1a promoter. HA-RASAL1 (NM_001193520.1) with an N-terminal HA tag, MYC (NM_002467.4), or MAPK7 (ERK5, NM_139033) were ligated with T2A mCherry and cloned into pLV under the control of the EF1a promoter. Cloning and plasmid sequence validation were performed by VectorBuilder Services (Santa Clara, Calif. 95050). Site-directed mutagenesis was performed to generate H3F3A K27M, H3F3A G34R, MYC S62D, and ERK5 mutant constructs using the QuikChange II Site-Directed Mutagenesis Kit and manufacturer's protocol (Agilent, Cat #200523, Santa Clara, Calif. 95051). Lentiviral ERK5 GIPZ shRNA plasmids were purchased from Dharmacon (Lafayette, Colo. 80026, Cat #RHS4531-EG5598 glycerol set: V2LHS 202701, V3LHS_366737, V3LHS_366738, V3LHS_366740, V3LHS_640828, V3LHS_640830).
as §1, with “7.0.” for “7.0. Drug concentrations were log 10 transformed and values normalized to percent viability with respect to vehicle treated cells.”

[5] = test system: MYCN; assay: MYCN qRT-PCR and western blot in DIPG-13p cells; type: cell-based, human
Description: Cell pellets were lysed in PLC lysis buffer containing protease and phosphatase inhibitors (Roche Inc.). Protein lysates were quantified using the bicinchoninic acid (BCA) assay (Pierce Chemical Co., Rockford, Ill.). 30 μg of total protein lysate was loaded in 10% SDS-PAGE gels and electrophoresed. Proteins were transferred to PVDF membranes using a semi-dry transfer apparatus (Bio-Rad). Membranes were blocked for one hour and probed for various proteins overnight in 5% non-fat milk or 5% BSA in Tris Buffered Saline Solution, 0.5% Tween-20 (TBST) or Phosphate Buffered Saline Solution with 0.5% Tween-20 (PBST). […] Binding was detected using Chemiluminescence Reagent Plus (PerkinElmer Inc., MA, USA). […]
Total RNA isolation was performed using an RNA extraction kit according to the manufacturer's instructions (RNeasy kit, Qiagen). cDNA was synthesized from 100 ng of total RNA using the Quantitect RT kit which included DNAse treatment (Qiagen). Quantitative real-time PCR was performed on 10 ng of cDNA template in a final volume of 20 μl using the Chromo4 Real Time PCR detector (MJ Research, a Division of Bio-Rad Laboratories Ltd) using SYBR green fluorescence. RT-PCR data was analyzed using Opticon Monitor 3.1.3 analysis software. […]

[6] = target: ERK5 (Homo sapiens, UniProt Q13164); assay: Western blot of ERK5 phosphorylation sites in DIPG cells; type: cell-based; set-up: endogenous in cells; host or cells: DIPG-007 and DIPG-IV cells; settings: DIPG-007 and DIPG-IV cells
Description: Cell pellets were lysed in PLC lysis buffer containing protease and phosphatase inhibitors (Roche Inc.). Protein lysates were quantified using the bicinchoninic acid (BCA) assay (Pierce Chemical Co., Rockford, Ill.). 30 μg of total protein lysate was loaded in 10% SDS-PAGE gels and electrophoresed. Proteins were transferred to PVDF membranes using a semi-dry transfer apparatus (Bio-Rad). Membranes were blocked for one hour and probed for various proteins overnight in 5% non-fat milk or 5% BSA in Tris Buffered Saline Solution, 0.5% Tween-20 (TBST) or Phosphate Buffered Saline Solution with 0.5% Tween-20 (PBST). Membranes were washed for 5 mins in TBST (3×) and incubated with horseradish peroxidase-conjugated antibodies specific for the primary antibody (BioRad Laboratories, Inc., CA, USA). Binding was detected using Chemiluminescence Reagent Plus (PerkinElmer Inc., MA, USA).

ERK5, sequence (Q13164 whole entry): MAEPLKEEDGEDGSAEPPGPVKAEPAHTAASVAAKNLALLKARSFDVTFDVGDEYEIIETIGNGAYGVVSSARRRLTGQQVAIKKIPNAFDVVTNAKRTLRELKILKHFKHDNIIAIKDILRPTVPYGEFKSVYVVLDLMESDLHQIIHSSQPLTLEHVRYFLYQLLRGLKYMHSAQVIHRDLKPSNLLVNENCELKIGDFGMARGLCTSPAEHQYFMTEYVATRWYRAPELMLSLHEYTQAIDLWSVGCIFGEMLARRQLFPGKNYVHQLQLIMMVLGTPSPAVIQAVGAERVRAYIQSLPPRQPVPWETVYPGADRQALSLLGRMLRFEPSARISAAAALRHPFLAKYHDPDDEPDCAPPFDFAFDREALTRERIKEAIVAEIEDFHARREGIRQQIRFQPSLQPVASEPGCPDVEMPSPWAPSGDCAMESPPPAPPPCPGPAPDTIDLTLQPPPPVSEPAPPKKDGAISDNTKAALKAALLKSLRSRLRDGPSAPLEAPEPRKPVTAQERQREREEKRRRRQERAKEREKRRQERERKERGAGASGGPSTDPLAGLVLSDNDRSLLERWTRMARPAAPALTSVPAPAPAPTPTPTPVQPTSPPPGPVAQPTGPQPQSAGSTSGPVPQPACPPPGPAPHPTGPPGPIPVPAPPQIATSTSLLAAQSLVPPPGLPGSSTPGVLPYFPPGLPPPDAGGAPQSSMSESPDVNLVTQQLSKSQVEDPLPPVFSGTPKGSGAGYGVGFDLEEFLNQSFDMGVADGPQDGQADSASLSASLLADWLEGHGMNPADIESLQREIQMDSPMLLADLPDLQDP

With `CCOc1cc(C(=O)N2CCC(N3CCN(C)CC3)CC2)ccc1Nc1ncc2c(n1)N(C1CCCC1)c1ccccc1C(=O)N2C` [ERK5-IN-1, 11-cyclopentyl-2-[[2-ethoxy-4-[[4-(4-methyl-1-piperazinyl)-1-piperidinyl]carbonyl]phenyl]amino]-5,11-dihydro-5-methyl-6H-pyrimido[4,5b][1,4]benzodiazepin-6-one] the EC50 [1] was 0.5 to 1 µM, the “EC50 values for ERK5-IN-1” value [2] was “highest EC50 values” and the cell number ([3]; 500 nM, 9 days of treatment, DIPG-007, DIPG-IV, SF8628 cells, vs vehicle) was “significant decreases in cell number”. The cell growth ([3]; DIPG-13p and SF8628 cells) was “diminished cell growth”, the “resistance to ERK5-IN-1 (EC50 values)” value ([4]; DIPG-IV cells expressing MYC S62D vs empty vector control) was “promoted resistance” and the EC50 values ([4]; DIPG-IV cells expressing wild-type HA-tagged ERK5 or constitutively active ERK5 T733E vs empty vector) was “increased EC50 values”. For the same molecule, the “MYCN protein and transcript levels” value [5] was “down-regulation”, the “ERK5 Thr218/Tyr220 phosphorylation (regulated by MEK5)” value [6] was “did not inhibit” and the “ERK5 auto-phosphorylation and ERK5 activity sites (Ser731 and Thr733)” value ([6]; at 100 nM) was “inhibit”.

From patent US20220031710A1, “USE OF ERK5 INHIBITORS FOR TREATING GLIOMAS IN PEDIATRIC SUBJECTS” (UNIVERSITY OF PITTSBURGH - OF THE COMMONWEALTH SYSTEM OF …, priority 2019, published 2022)
